Row | Structure (SMILES) | melting point
1 | CC(C)COC(=O)[C@H](C)NC(=O)Cc1ccc(Cl)c(Cl)c1 [Example 5, N-[(3,4-dichlorophenyl)acetyl]-L-alanine iso-butyl ester] | 81 to 83 °C
2 | CC(C)COC(=O)[C@H](C)NC(=O)Cc1ccc2ccccc2c1 [Example 9, N-[(2-naphthyl)acetyl]-L-alanine iso-butyl ester] | 128 to 129 °C
3 | CC(C)COC(=O)C(C)NC(=O)Cc1cccnc1 (racemic) [Example 7, N-[(3-pyridyl)acetyl]-D,L-alanine iso-butyl ester] | 62 to 64 °C
4 | CC(C)COC(=O)[C@H](C)NC(=O)Cc1ccc(Cl)cc1 [Example 4, N-[(4-chlorophenyl)acetyl]-L-alanine iso-butyl ester] | 111 to 113 °C
5 | CC(C)COC(=O)[C@H](C)NC(=O)Cc1cccc2ccccc12 [Example 8, N-[(1-naphthyl)acetyl]-L-alanine iso-butyl ester] | 69 to 73 °C
6 | CC(C)COC(=O)C(C)NC(=O)Cc1ccncc1 (racemic) [Example 12, N-[(4-pyridyl)acetyl]-D,L-alanine iso-butyl ester] | 64 to 66 °C
7 | Cc1ccc(CC(=O)NC(C)C(=O)OCC(C)C)cc1 (racemic) [Example 6, N-[(4-methylphenyl)acetyl]-D,L-alanine iso-butyl ester] | 102 to 104 °C

More lines, now with the values ahead:

Row | melting point | Structure (SMILES)
8 | 45 to 47 °C | CC(C)COC(=O)[C@H](C)NC(=O)Cc1ccccc1 [Example 13, N-(phenylacetyl)-L-alanine iso-butyl ester]
9 | 49 to 51 °C | CC(C)COC(=O)[C@H](C)NC(=O)CC1=CCCCC1 [Example 72, N-[(cyclohex-1-enyl)acetyl]-L-alanine iso-butyl ester]
10 | 93 to 95 °C | CCOC(=O)[C@H](C)NC(=O)Cc1cc(F)cc(F)c1 [Example 64, N-[(3,5difluorophenyl)acetyl]alanine ethyl ester]
11 | 92 to 93 °C | CC(C)COC(=O)[C@H](C)NC(=O)CC1CCCCC1 [Example 70, N-(cyclohexylacetyl)-L-alanine iso-butyl ester]
12 | 62 to 64 °C | CC(C)COC(=O)[C@H](C)NC(=O)CC1CCCC1 [Example 71, N-(cyclopentylacetyl)-L-alanine iso-butyl ester]

From US6767918B2, “N-(aryl/heteroarylacetyl) amino acid esters, pharmaceutical compositions comprising same, and methods for inhibiting β-amyloid peptide release and/or its synthesis by use of such compounds” (Athena Neurosciences, Inc., priority 1996, dated 2004)
